Reference: patent US20060252683A1, “Preparation of a peptide compound (SYRAPRO-2000) and its use for the activation of protein phosphatase-2A1 enzyme” (priority 2005, published 2006)

Columns and labels:
[1] = target: protein phosphatase-2A1 (Homo sapiens, UniProt P67775); assay: Assay of purified protein phosphatase-2A1 in vitro with 32P-labeled phosphorylase a as substrate; format: biochemical; parameters: Protein phosphatase-2A1 purified from CD^4+ T cells as described in materials and method; endogenous in cells; host or cells: Jurkat cells; enzyme purified by DEAE Sepharose, Sephacryl S-300 HR and poly-L-lysine Agarose; conditions: purified enzyme from Jurkat cells, in vitro
Procedure: Protein phosphatase-2A1 purified from CD^4+ T cells as described in materials and method was assayed in the presence of various concentrations of SYRAPRO-2000. 100 percent protein phosphatase-2A1 activity is equivalent to 0.005 unit. Similar result were obtained in 3 independent experiments.
The effect of synthesized SYRAPRO-2000 on purified protein phosphatase-2A1 can be determined in vitro. Protein phosphatase-2A1 can be assayed using ^32P-labeled phosphorylase a as substrate in the presence of various concentrations of SYRAPRO-2000. Protein phosphatase-2A1 is activated in the presence of SYRAPRO-2000.
Protein phosphatase-1 was assayed as described in (Cohen 1988). Protein phosphatase-2B was assayed as described in (Tung 1986). Protein phosphatase-2C was assayed as described in (Tung 1986) except Ca^2+ and calmodulin were omitted. The assay of protein phosphatases-2A1 consisted of 0.02 ml of enzyme solution in 50 mM Imidazole-Cl pH 7.2, 0.2 mM EGTA, 0.1% (v/v) 2-mercaptoethanol and 1 mg/ml bovine serum albumin (Assay Buffer), 0.01 ml of inhibitor-2 at 600 nM in Assay Buffer, 0.01 ml of protamine at 60 μg/ml in Assay Buffer or 0.01 ml of SYRAPRO-2000 at different concentrations in Assay Buffer or 0.01 ml of Assay Buffer alone, 0.02 ml of ^32P-labeled phosphorylase a at 3 mg/ml in Assay Buffer containing 15 mM caffeine. The assay components were preincubated for 10 minutes prior to initiating the reaction with ^32P-labeled phosphorylase a. One unit of protein phosphatase activity is that amount of enzyme which catalyzes the release of 1 nmol of phosphate from ^32P-labeled substrate per min at 30° C.
Jurkat cells, a human transformed CD^4+ T cell line, were grown in grown in RPMI 1680 supplemented with 5% (v/v) fetal bovine serum at 37° C. in 95% air/5% CO2 in a humidified incubator. 2.4 liters of cells were collected by centrifugation at 4200 rpm in a low speed centrifuge for 10 minutes. The cells were homogenized in 80 ml of 50 mM Imidazole-Cl pH 7.2, 2 mM EGTA, 2 mM EDTA, 0.1% (v/v) 2-mercaptoethanol, 0.2 mM PMSF, 1 mM benzamidine, 4 μg/ml aprotinin, 4 μg/ml leupeptin, 4 μg/ml pepstatin, 0.1 mM TLCK, 0.1 mM TPCK, 1 mM sodium orthovanadate and 10% (v/v) glycerol by 40 strokes in a glass hand held homogenizer. The homogenate was centrifuged at 29000 rpm in a high speed centrifuge for 30 minutes. The supernatant (i.e the extract) was collected and loaded onto a DEAE Sepharose column (1.5×6 cm) equilibrated in 25 mM Imidazole-Cl pH 7.2, 0.2 mM EGTA, 0.1% (v/v) 2-mercaptoethanol, 0.1 mM PMSF, 1 mM benzamidine and 10% (v/v) glycerol (Buffer A). The column was washed with 50 ml of Buffer and then eluted with a 200 ml linear gradient of Buffer A to Buffer A plus 0.4 M NaCl. The eluted fractions were then assayed for phosphorylase phosphatase activity in the presence of 100 nM inhibitor-2 and 10 μg/ml of protamine. Two major peaks of phosphorylase phosphatase were observed. The first and second peak represent protein phosphatase-2A0 and protein phosphatase-2A1 respectively. […] The major activity eluting as a species of apparent molecular mass 300 kDa was collected, diluted four fold in Buffer A and loaded onto a poly-L-lysine Agarose Column (1.5×4 cm) equilibrated in Buffer A. The column was washed with 50 ml of Buffer A and then eluted with a 200 ml linear gradient of Buffer A to Buffer A plus 0.5 M NaCl. The active fractions eluting at ˜0.30 M NaCl salt concentration was pooled, concentrated by vacuum dialysis and stored at ^−20° C. in 50 mM Imidazole-Cl pH 7.2, 0.2 mM EGTA in the presence of 50% (v/v) glycerol. The highly purified enzyme consisted of the characteristic subunits of protein phosphatase-2A1, namely the A, B and C subunits. […] It is difficult to determine the activity of protein phosphatase-2A1 in CD^4+ T cell extract. However, assuming that it represented about 66 percent of total type 2A protein phosphatase activity in CD^4+ T cell extract, the specific activity of the enzyme in extract was estimated to be 0.3 unit/mg. […]

[2] = system: protein phosphatase-2C; assay: Protein phosphatase-2C assay; format: biochemical, pig; conditions: various concentrations
Procedure: Protein phosphatase-1 (squares), protein phosphatase-2A1 (circles), protein phosphatase-2B (triangles) and protein phosphatase-2C (stars) were assayed in the presence of various concentrations of HIV-1 Vpr^71-96. 100 percent protein phosphatase activity is equivalent to 0.005 unit. Similar results were obtained in 3 independent experiments.
^32P-labeled phosphorylase a was prepared by phosphorylation of phosphorylase b with phosphorylase kinase as described in (Cohen 1988). ^32P-labeled casein was prepared by phosphorylation of casein with protein kinase A as described in (Tung 1986). Protein phosphatase-1 was purified from rabbit skeletal muscle as described in (Cohen 1988). Protein phosphatase-1 inhibitor-2 was purified from rabbit skeletal muscle as described in (Yang 1981). Protein phosphatase-2A0 and protein phosphatase-2A1 from pig brain and from pig liver were purified as described in (Tung 1985). Protein phosphatase-2A0 and protein phosphatase-2A1 from pig adipose tissue were highly purified by successive chromatography of pig subcutaneous adipose tissue extracts on DEAE Sepharose, Poly-L-lysine Agarose, Sephacryl S-300 HR and thiophosphorylase-a-Sepharose-4B as described in (Tung 1985). Protein phosphatase-2B was purified from pig brain as described in (Tung 1986). […]

Sequence of protein phosphatase-2A1 (P67775 whole entry): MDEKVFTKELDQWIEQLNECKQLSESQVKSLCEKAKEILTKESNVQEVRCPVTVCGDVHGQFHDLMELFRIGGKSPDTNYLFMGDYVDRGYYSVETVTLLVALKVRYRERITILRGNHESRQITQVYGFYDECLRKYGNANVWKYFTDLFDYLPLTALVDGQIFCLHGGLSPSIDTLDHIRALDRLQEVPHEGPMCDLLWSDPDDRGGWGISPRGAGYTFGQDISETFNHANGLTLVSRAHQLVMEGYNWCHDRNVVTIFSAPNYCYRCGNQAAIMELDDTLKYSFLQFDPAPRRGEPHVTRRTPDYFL
Sequence of protein phosphatase-2A1 (P30153 whole entry partner): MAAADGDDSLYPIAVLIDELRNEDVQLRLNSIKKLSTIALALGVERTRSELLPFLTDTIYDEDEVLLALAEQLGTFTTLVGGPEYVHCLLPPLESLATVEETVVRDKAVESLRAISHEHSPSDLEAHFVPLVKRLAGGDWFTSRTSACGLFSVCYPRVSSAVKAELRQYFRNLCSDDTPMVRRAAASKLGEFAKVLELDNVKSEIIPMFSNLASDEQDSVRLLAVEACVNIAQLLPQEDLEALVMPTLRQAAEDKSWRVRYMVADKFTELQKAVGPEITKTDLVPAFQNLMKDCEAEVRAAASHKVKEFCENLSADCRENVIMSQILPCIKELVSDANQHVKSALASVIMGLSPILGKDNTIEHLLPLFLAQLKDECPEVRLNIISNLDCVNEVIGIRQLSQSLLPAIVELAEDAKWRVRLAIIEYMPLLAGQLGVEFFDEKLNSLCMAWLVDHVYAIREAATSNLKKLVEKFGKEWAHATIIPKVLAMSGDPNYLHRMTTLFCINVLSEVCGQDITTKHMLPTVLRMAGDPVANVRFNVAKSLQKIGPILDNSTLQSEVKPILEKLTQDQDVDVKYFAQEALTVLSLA
Sequence of protein phosphatase-2A1 (P63151 whole entry partner): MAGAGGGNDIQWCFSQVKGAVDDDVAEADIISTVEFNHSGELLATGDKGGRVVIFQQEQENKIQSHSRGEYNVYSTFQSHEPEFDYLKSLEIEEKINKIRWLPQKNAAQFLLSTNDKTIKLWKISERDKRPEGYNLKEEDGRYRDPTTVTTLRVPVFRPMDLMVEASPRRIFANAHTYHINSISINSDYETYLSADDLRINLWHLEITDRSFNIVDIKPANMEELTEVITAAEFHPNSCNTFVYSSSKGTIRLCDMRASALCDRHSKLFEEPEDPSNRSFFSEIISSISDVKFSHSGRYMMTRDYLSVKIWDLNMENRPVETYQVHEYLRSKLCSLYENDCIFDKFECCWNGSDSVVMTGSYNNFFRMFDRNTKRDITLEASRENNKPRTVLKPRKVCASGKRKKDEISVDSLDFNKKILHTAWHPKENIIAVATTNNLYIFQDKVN

CC[C@H](C)[C@H](NC(=O)[C@H](CCCNC(=N)N)NC(=O)[C@H](CO)NC(=O)[C@H](Cc1c[nH]cn1)NC(=O)[C@H](CCCNC(=N)N)NC(=O)[C@H](CS)NC(=O)CNC(=O)[C@@H](NC(=O)[C@H](CCCNC(=N)N)NC(=O)[C@H](Cc1ccccc1)NC(=O)[C@@H](N)Cc1c[nH]cn1)[C@@H](C)CC)C(=O)NCC(=O)N[C@H](C(=O)N[C@H](C(=O)N[C@@H](CCCNC(=N)N)C(=O)N[C@@H](CCC(N)=O)C(=O)N[C@@H](CCCNC(=N)N)C(=O)N[C@@H](CCCNC(=N)N)C(=O)N[C@@H](C)C(=O)N[C@@H](CCCNC(=N)N)C(=O)N[C@@H](CC(N)=O)C(=O)NCC(=O)N[C@@H](C)C(=O)N[C@@H](CO)C(=O)N[C@@H](CCCNC(=N)N)C(=O)N[C@@H](CO)C(=O)O)[C@@H](C)O)C(C)C [SYRAPRO-2000]
activation of protein phosphatase-2A1 [1]: 7 fold | concentration above which there was inhibition of protein phosphatase-2A1 (biphasic effect) [1]: above 1000 nM | EC50 ([1]; read-out: half maximal activation of protein phosphatase-2A1): ~300 nM | effect on activity of protein phosphatase-2C [2]: negligible effect
